Reference: patent US10023570B2 (Array BioPharma, Inc., priority 2015, dated 2018)
Counter-ions that a name gives are not always drawn.

Biological target: human KDR protein in HEK-293 cells (Homo sapiens (Human), UniProt P35968)
Assay: KDR Cell Assay (phospho-KDR in HEK-293 cells expressing inducible KDR)
Assay type: cell-based
Details: pKDR Cell HEK 10% FBS IC50, HEK-293 cells expressing inducible KDR, VEGF stimulated
In short: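 HEK-293 cells with inducible human KDR were treated with compound for 1 h in DMEM (0.25% DMSO final), then lysed. Phospho-KDR was quantified by Meso Scale immunoassay, expressed as percent of control, and IC50 taken where a 4-parameter logistic fit crossed 50 POC.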

Sequence of human KDR protein in HEK-293 cells (P35968 20-1356): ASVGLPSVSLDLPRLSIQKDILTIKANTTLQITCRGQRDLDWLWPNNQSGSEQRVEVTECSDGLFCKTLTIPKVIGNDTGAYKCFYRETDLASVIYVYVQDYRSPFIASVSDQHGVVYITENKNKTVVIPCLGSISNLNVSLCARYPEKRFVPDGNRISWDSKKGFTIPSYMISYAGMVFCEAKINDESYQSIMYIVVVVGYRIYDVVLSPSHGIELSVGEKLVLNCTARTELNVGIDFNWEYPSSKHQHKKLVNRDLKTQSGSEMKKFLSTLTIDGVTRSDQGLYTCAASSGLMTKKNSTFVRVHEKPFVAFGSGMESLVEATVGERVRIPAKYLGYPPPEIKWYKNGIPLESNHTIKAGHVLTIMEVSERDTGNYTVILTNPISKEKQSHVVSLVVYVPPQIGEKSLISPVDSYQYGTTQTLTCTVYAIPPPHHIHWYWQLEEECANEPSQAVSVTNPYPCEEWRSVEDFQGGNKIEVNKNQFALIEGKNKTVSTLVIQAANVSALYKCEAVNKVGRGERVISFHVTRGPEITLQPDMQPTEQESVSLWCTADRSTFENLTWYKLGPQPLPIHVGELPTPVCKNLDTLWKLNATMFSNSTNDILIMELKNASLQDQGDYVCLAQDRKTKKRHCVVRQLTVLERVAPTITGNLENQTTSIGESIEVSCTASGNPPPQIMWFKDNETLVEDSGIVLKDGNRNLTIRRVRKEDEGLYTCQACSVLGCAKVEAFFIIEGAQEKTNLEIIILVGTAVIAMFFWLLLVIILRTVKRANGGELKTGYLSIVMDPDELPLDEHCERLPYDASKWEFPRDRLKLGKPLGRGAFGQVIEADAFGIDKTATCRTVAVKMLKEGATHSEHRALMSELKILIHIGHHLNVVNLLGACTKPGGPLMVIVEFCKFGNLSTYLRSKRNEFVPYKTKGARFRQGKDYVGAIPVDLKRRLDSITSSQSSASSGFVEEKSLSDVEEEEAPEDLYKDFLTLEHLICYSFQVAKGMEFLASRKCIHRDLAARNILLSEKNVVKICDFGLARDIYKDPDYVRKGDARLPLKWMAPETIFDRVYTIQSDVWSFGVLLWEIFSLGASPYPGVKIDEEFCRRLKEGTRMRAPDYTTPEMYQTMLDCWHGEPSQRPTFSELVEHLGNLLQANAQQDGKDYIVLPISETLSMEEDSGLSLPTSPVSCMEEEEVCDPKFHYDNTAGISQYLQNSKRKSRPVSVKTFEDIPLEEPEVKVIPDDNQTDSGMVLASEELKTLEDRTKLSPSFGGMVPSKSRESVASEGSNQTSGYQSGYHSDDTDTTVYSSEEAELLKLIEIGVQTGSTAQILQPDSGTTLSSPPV

| SMILES | IC50 (10% FBS) [nM] | IC50 [nM] |
| --- | --- | --- |
| CO[C@@H](C(=O)N1CCN(c2ccc(-c3cc(-c4cnn(C)c4)cn4ncc(C#N)c34)cn2)CC1)C(C)C [Example 86, (R)-4-(6-(4-(2-methoxy-3-methylbutanoyl)piperazin-1-yl)pyridin-3-yl)-6-(1-methyl-1H-pyrazol-4-yl)pyrazolo[1,5-a]pyridine-3-carbonitrile] | 428 | – |
| CO[C@H]1CCN(C(=O)N2CCN(c3ccc(-c4cc(-c5cnn(C)c5)cn5ncc(C#N)c45)cn3)CC2)C1 [Example 97, (S)-4-(6-(4-(3-methoxypyrrolidine-1-carbonyl)piperazin-1-yl)pyridin-3-yl)-6-(1-methyl-1H-pyrazol-4-yl)pyrazolo[1,5-a]pyridine-3-carbonitrile] | 751 | – |
| CCC(CC)C(=O)N1CC2(CCN(c3ccc(-c4cc(-c5cnn(C)c5)cn5ncc(C#N)c45)cn3)CC2)C1 [Example 496, 4-(6-(2-(2-ethylbutanoyl)-2,7-diazaspiro[3.5]nonan-7-yl)pyridin-3-yl)-6-(1-methyl-1H-pyrazol-4-yl)pyrazolo[1,5-a]pyridine-3-carbonitrile] | – | 2120 |
| Cn1cc(-c2cc(-c3ccc(N4CCN(CC5CC5)CC4)nc3)c3c(C#N)cnn3c2)cn1 [Example 394, 4-(6-(4-(cyclopropylmethyl)piperazin-1-yl)pyridin-3-yl)-6-(1-methyl-1H-pyrazol-4-yl)pyrazolo[1,5-a]pyridine-3-carbonitrile] | – | 453 |
| Cn1cc(-c2cc(-c3ccc(N4CCCC5(CCCN5)C4)nc3)c3c(C#N)cnn3c2)cn1 (stereo not drawn) [Example 542, 4-(6-(1,7-diazaspiro[4.5]decan-7-yl)pyridin-3-yl)-6-(1-methyl-1H-pyrazol-4-yl)pyrazolo[1,5-a]pyridine-3-carbonitrile dihydrochloride] | – | 222 |
| Cn1cc(-c2cc(-c3ccc(N4CCN(C(=O)C5(c6ccc(Cl)cc6)CC5)CC4)nc3)c3c(C#N)cnn3c2)cn1 [Example 341, 4-(6-(4-(1-(4-chlorophenyl)cyclopropanecarbonyl)piperazin-1-yl)pyridin-3-yl)-6-(1-methyl-1H-pyrazol-4-yl)pyrazolo[1,5-a]pyridine-3-carbonitrile] | 237 | – |
| Cn1cc(-c2cc(-c3ccc(N4CCN(C(=O)[C@@H](N)c5ccccc5)CC4)nc3)c3c(C#N)cnn3c2)cn1 [Example 50, (S)-4-(6-(4-(2-amino-2-phenylacetyl)piperazin-1-yl)pyridin-3-yl)-6-(1-methyl-1H-pyrazol-4-yl)pyrazolo[1,5-a]pyridine-3-carbonitrile bis(2,2,2-trifluoroacetate)] | 1190 | – |
| Cn1cc(-c2cc(-c3ccc(N4CC[C@@H](C(=O)NCCC(F)(F)F)C4)nc3)c3c(C#N)cnn3c2)cn1 [Example 259, (R)-1-(5-(3-cyano-6-(1-methyl-1H-pyrazol-4-yl)pyrazolo[1,5-a]pyridin-4-yl)pyridin-2-yl)-N-(3,3,3-trifluoropropyl)pyrrolidine-3-carboxamide] | 2770 | – |
| Cn1cc(-c2cc(-c3ccc(N4CCN(C(=O)N[C@H]5CCOC5)CC4)nc3)c3c(C#N)cnn3c2)cn1 [Example 105, (S)-4-(5-(3-cyano-6-(1-methyl-1H-pyrazol-4-yl)pyrazolo[1,5-a]pyridin-4-yl)pyridin-2-yl)-N-(tetrahydrofuran-3-yl)piperazine-1-carboxamide] | 1140 | – |
| CO[C@](C(=O)N1CCN(c2ccc(-c3cc(-c4cnn(C)c4)cn4ncc(C#N)c34)cn2)CC1)(c1ccccc1)C(F)(F)F [Example 371, (S)-6-(1-methyl-1H-pyrazol-4-yl)-4-(6-(4-(3,3,3-trifluoro-2-methoxy-2-phenylpropanoyl)piperazin-1-yl)pyridin-3-yl)pyrazolo[1,5-a]pyridine-3-carbonitrile] | – | 1910 |
| Cn1cc(-c2cc(-c3ccc(N4CCN(C(=O)Cc5ccccc5)CC4)nc3)c3c(C#N)cnn3c2)cn1 [Example 78, 6-(1-methyl-1H-pyrazol-4-yl)-4-(6-(4-(2-phenylacetyl)piperazin-1-yl)pyridin-3-yl)pyrazolo[1,5-a]pyridine-3-carbonitrile] | 80.6 | – |
| Cn1cc(-c2cc(-c3ccc(N4CCN(Cc5c(F)cccc5F)CC4)nc3)c3c(C#N)cnn3c2)cn1 [Example 441, 4-(6-(4-(2,6-difluorobenzyl)piperazin-1-yl)pyridine-3-yl)-6-(1-methyl-1H-pyrazol-4-yl)pyrazolo[1,5-a]pyridine-3-carbonitrile] | – | 576 |
| Cn1cc(-c2cc(-c3ccc(N4CCC(c5ccccc5)C4)nc3)c3c(C#N)cnn3c2)cn1 (stereo not drawn) [Example 533, 6-(1-methyl-1H-pyrazol-4-yl)-4-(6-(3-phenylpyrrolidin-1-yl)pyridin-3-yl)pyrazolo[1,5-a]pyridine-3-carbonitrile 2,2,2-trifluoroacetate] | – | 4860 |
| CN1CCCC12CCCN(c1ccc(-c3cc(-c4cnn(C)c4)cn4ncc(C#N)c34)cn1)C2 (stereo not drawn) [Example 557, 4-(6-(1-methyl-1,7-diazaspiro[4.5]decan-7-yl)pyridin-3-yl)-6-(1-methyl-1H-pyrazol-4-yl)pyrazolo[1,5-a]pyridine-3-carbonitrile] | – | 802 |
| Cn1cc(-c2cc(-c3ccc(N4CCN(CC(O)c5ccc(Cl)cc5)CC4)nc3)c3c(C#N)cnn3c2)cn1 (stereo not drawn) [Example 152, 4-(6-(4-(2-(4-chlorophenyl)-2-hydroxyethyl)piperazin-1-yl)pyridin-3-yl)-6-(1-methyl-1H-pyrazol-4-yl)pyrazolo[1,5-a]pyridine-3-carbonitrile] | 207 | – |
| COCC(=O)N1CCN(c2ccc(-c3cc(-c4cnn(C)c4)cn4ncc(C#N)c34)cc2)CC1 [Example 292, 4-(4-(4-(2-methoxyacetyl)piperazin-1-yl)phenyl)-6-(1-methyl-1H-pyrazol-4-yl)pyrazolo[1,5-a]pyridine-3-carbonitrile] | 1080 | – |
| COc1ccc(Cn2cc(-c3cc(-c4ccc(N5CCNCC5)nc4)c4c(C#N)cnn4c3)cn2)cc1 [Example 590, 6-(1-(4-methoxybenzyl)-1H-pyrazol-4-yl)-4-(6-(piperazin-1-yl)pyridin-3-yl)pyrazolo[1,5-a]pyridine-3-carbonitrile] | – | 1490 |
| Cn1cc(-c2cc(-c3ccc(N4CCN(C(=O)c5cc(C6CC6)[nH]n5)CC4)nc3)c3c(C#N)cnn3c2)cn1 [Example 370, 4-(6-(4-(5-cyclopropyl-1H-pyrazole-3-carbonyl)piperazin-1-yl)pyridin-3-yl)-6-(1-methyl-1H-pyrazol-4-yl)pyrazolo[1,5-a]pyridine-3-carbonitrile bis(2,2,2-trifluoroacetate)] | 29.8 | – |
| CCc1cnn2cc(-c3cnn(C)c3)cc(-c3ccc(N4CCN(C(=O)[C@H](O)c5ccccc5)CC4)nc3)c12 [Example 658, (R)-1-(4-(5-(3-ethyl-6-(1-methyl-1H-pyrazol-4-yl)pyrazolo[1,5-a]pyridin-4-yl)pyridin-2-yl)piperazin-1-yl)-2-hydroxy-2-phenylethanone] | – | 1840 |
| Cn1cc(-c2cc(-c3ccc(N4CCN(C(=O)N5CCC(F)(F)CC5)CC4)nc3)c3c(C#N)cnn3c2)cn1 [Example 115, 4-(6-(4-(4,4-difluoropiperidine-1-carbonyl)piperazin-1-yl)pyridin-3-yl)-6-(1-methyl-1H-pyrazol-4-yl)pyrazolo[1,5-a]pyridine-3-carbonitrile] | 3180 | – |
| Cc1nccc(CN2CCN(c3ccc(-c4cc(-c5cnn(C)c5)cn5ncc(C#N)c45)cn3)CC2)n1 [Example 467, 6-(1-methyl-1H-pyrazol-4-yl)-4-(6-(4-((2-methylpyrimidin-4-yl)methyl)piperazin-l-yl)pyridin-3-yl)pyrazolo[1,5-a]pyridine-3-carbonitrile] | – | 1540 |
